# Reference: US20240101528A1, “SUBSTITUTED PYRAZOLO PIPERIDINE CARBOXYLIC ACIDS” (BAYER AKTIENGESELLSCHAFT, priority 2020, published 2024)
# Structures can show the parent of a compound that is named as a salt.
# Biological target: T1, recombinant guanylate cyclase reporter cell line (Rattus norvegicus, UniProt P20595)
# T1 construct: expressed in transfected cells
# T1 sequence (P20595 1-619): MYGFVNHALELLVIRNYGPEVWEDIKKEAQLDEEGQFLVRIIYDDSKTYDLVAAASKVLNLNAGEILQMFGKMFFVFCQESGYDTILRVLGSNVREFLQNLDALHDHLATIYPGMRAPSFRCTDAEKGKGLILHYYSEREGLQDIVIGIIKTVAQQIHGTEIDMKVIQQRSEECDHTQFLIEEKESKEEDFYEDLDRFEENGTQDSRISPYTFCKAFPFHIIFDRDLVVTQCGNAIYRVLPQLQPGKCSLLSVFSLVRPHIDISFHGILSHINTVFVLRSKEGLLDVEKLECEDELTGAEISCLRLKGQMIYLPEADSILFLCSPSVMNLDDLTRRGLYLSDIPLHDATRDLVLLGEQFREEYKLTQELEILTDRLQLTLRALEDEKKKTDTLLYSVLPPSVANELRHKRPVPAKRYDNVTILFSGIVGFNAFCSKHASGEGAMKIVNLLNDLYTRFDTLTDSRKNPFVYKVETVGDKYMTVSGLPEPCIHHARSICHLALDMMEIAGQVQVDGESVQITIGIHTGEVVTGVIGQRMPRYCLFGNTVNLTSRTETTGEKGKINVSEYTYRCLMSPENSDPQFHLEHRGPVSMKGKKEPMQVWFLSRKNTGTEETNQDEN
# T1 sequence (P19686 1-690 partner): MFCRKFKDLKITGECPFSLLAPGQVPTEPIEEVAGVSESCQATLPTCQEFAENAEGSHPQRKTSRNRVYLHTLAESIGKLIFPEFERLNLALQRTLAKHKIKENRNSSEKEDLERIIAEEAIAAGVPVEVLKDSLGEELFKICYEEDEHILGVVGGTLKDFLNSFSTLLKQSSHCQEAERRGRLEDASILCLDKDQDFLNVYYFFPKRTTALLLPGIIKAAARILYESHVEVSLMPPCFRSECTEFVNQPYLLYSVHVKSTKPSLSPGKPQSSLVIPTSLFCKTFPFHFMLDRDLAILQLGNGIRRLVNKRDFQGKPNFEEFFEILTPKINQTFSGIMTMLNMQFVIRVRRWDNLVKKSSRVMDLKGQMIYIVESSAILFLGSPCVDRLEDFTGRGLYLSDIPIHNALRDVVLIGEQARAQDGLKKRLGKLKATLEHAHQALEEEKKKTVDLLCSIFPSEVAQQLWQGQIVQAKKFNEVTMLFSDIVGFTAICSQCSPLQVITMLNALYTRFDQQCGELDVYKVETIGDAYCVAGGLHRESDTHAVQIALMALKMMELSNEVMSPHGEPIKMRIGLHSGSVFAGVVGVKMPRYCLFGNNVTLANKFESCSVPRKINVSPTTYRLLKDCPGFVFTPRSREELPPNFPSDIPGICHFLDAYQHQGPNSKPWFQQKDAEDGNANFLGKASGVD
# Assay: Effect on a recombinant guanylate cyclase reporter cell line
# Format: cell-based
# Settings: for EC50: half maximal effective concentration; for MEC: minimum effective concentration
# Description: B-1. Effect on a Recombinant Guanylate Cyclase Reporter Cell Line
# The cellular activity of the compounds according to the invention was determined using a recombinant guanylate cyclase reporter cell line, as described in F. Wunder et al., Anal. Biochem. 339, 104-112 (2005).
Compound,EC50,MEC
"O=C(O)c1cnn(C2CCCN(c3cc(Cl)ccc3-c3ccc(N4CCN(CC(F)F)CC4)cc3)C2)c1C(F)F (single isomer, unassigned; enantiomer 1) [Example 18, 1-[1-{4-Chloro-4′-[4-(2,2-difluoroethyl)piperazin-1-yl][biphenyl]-2-yl}piperidin-3-yl]-5-(difluoromethyl)-1H-pyrazole-4-carboxylic acid hydrochloride (Enantiomer 1)]",< 1 nM,0.3 nM
"CC(F)(F)CN1CCN(c2ccc(-c3ccc(Cl)cc3N3CCCC(n4ncc(C(=O)O)c4C(F)F)C3)cc2)CC1 (single isomer, unassigned; enantiomer 1) [Example 24, 1-(1-{4-Chloro-4′-[4-(2,2-difluoropropyl)piperazin-1-yl][biphenyl]-2-yl}piperidin-3-yl)-5-(difluoromethyl)-1H-pyrazole-4-carboxylic acid hydrochloride (Enantiomer 1)]",1.8 nM,0.3 nM
"O=C(O)c1cnn(C2CCCN(c3cc(Cl)ccc3-c3ccc(N4CCN(C5COC5)CC4)cc3)C2)c1C(F)F (single isomer, unassigned; enantiomer 1) [Example 42, 1-(1-{4-Chloro-4′-[4-(oxetan-3-yl)piperazin-1-yl][biphenyl]-2-yl}piperidin-3-yl)-5-(difluoromethyl)-1H-pyrazole-4-carboxylic acid hydrochloride (Enantiomer 1)]",71 nM,30.0 nM
"CC(C)CN1CCN(c2ccc(-c3ccc(Cl)cc3N3CC(n4ncc(C(=O)O)c4C(F)F)CC(F)(F)C3)cc2)CC1 (single isomer, unassigned; enantiomer 1) [Example 54, 1-{1-[4-Chloro-4′-(4-isobutylpiperazin-1-yl)[biphenyl]-2-yl]-5,5-difluoropiperidin-3-yl}-5-(difluoromethyl)-1H-pyrazole-4-carboxylic acid hydrochloride (Enantiomer 1)]",8.4 nM,3.0 nM
"CCN1CCN(c2ccc(-c3ccc(Cl)cc3N3CCCC(n4ncc(C(=O)O)c4C(F)F)C3)cc2)CC1 (single isomer, unassigned; enantiomer 2) [Example 4, 1-{1-[4-Chloro-4′-(4-ethylpiperazin-1-yl)[biphenyl]-2-yl]piperidin-3-yl}-5-(difluoromethyl)-1H-pyrazole-4-carboxylic acid hydrochloride (Enantiomer 2)]",13 nM,1.3 nM
"CC(C)N1CCN(c2ccc(-c3ccc(Cl)cc3N3CCCC(n4ncc(C(=O)O)c4C(F)F)C3)cc2)CC1 (single isomer, unassigned; enantiomer 2) [Example 7, 1-{1-[4-Chloro-4′-(4-isopropylpiperazin-1-yl)[biphenyl]-2-yl]piperidin-3-yl}-5-(difluoromethyl)-1H-pyrazole-4-carboxylic acid hydrochloride (Enantiomer 2)]",43.3 nM,10.0 nM
"O=C(O)c1cnn(C2CCCN(c3cc(Cl)ccc3-c3ccc(N4CCN(C5CC5)CC4)cc3)C2)c1C(F)F (single isomer, unassigned; enantiomer 2) [Example 9, 1-{1-[4-Chloro-4′-(4-cyclopropylpiperazin-1-yl)[biphenyl]-2-yl]piperidin-3-yl}-5-(difluoromethyl)-1H-pyrazole-4-carboxylic acid hydrochloride (Enantiomer 2)]",36.5 nM,3.0 nM

# Further lines, results first:
EC50,MEC,Compound
9.2 nM,0.8 nM,"O=C(O)c1cnn(C2CCCN(c3cc(Cl)ccc3-c3ccc(N4CCN(CC5CC5)CC4)cc3)C2)c1C(F)F (single isomer, unassigned; enantiomer 1) [Example 10, 1-[1-{4-Chloro-4′-[4-(cyclopropylmethyl)piperazin-1-yl][1,1′-biphenyl]-2-yl}piperidin-3-yl]-5-(difluoromethyl)-1H-pyrazole-4-carboxylic acid hydrochloride (Enantiomer 1)]"
61.5 nM,10.0 nM,"CC(C)(C)CN1CCN(c2ccc(-c3ccc(Cl)cc3N3CCCC(n4ncc(C(=O)O)c4C(F)F)C3)cc2)CC1 (single isomer, unassigned; enantiomer 1) [Example 12, 1-[(1-{4-Chloro-4′-[4-(2,2-dimethylpropyl)piperazin-1-yl][biphenyl]-2-yl}piperidin-3-yl]-5-(difluoromethyl)-1H-pyrazole-4-carboxylic acid hydrochloride (Enantiomer 1)]"
6.7 nM,0.6 nM,"O=C(O)c1cnn(C2CCCN(c3cc(Cl)ccc3-c3ccc(N4CCN(CC5CC(F)(F)C5)CC4)cc3)C2)c1C(F)F (single isomer, unassigned; enantiomer 1) [Example 15, 1-[1-(4-Chloro-4′-{4-[(3,3-difluorocyclobutyl)methyl]piperazin-1-yl}[biphenyl]-2-yl)piperidin-3-yl]-5-(difluoromethyl)-1H-pyrazole-4-carboxylic acid hydrochloride (Enantiomer 1)]"
45 nM,10.0 nM,"O=C(O)c1cnn(C2CCCN(c3cc(Cl)ccc3-c3ccc(N4CCCC4)cc3)C2)c1C(F)F (single isomer, unassigned; enantiomer 1) [Example 44, 1-{1-[4-Chloro-4′-(pyrrolidin-1-yl)[biphenyl]-2-yl]piperidin-3-yl}-5-(difluoromethyl)-1H-pyrazole-4-carboxylic acid (Enantiomer 1)]"
1.9 nM,1.0 nM,"O=C(O)c1cnn(C2CCCN(c3cc(Cl)ccc3-c3ccc(N4CCN(CC(F)(F)F)CC4)nc3)C2)c1C(F)F (single isomer, unassigned; enantiomer 1) [Example 64, 1-[1-(5-Chloro-2-{6-[4-(2,2,2-trifluoroethyl)piperazin-1-yl]pyridin-3-yl}phenyl)piperidin-3-yl]-5-(difluoromethyl)-1H-pyrazole-4-carboxylic (Enantiomer 1)]"
< 1 nM,<0.3 nM,"O=C(O)c1cnn(C2CCCN(c3cc(Cl)ccc3-c3ccc(N4CCN(CCC(F)(F)F)CC4)nc3)C2)c1C(F)F (single isomer, unassigned; enantiomer 1) [Example 66, 1-[1-(5-Chloro-2-{6-[4-(3,3,3-trifluoropropyl)piperazin-1-yl]pyridin-3-yl}phenyl)piperidin-3-yl]-5-(difluoromethyl)-1H-pyrazole-4-carboxylic acid hydrochloride (Enantiomer 1)]"
66 nM,10.0 nM,"CCN1CCN(c2ccc(-c3ccc(C(F)(F)F)cc3N3CCCC(n4ncc(C(=O)O)c4C(F)F)C3)cc2)CC1 (single isomer, unassigned; enantiomer 1) [Example 73, 5-(Difluoromethyl)-1-{1-[4′-(4-ethylpiperazin-1-yl)-4-(trifluoromethyl)[biphenyl]-2-yl]piperidin-3-yl}-1H-pyrazole-4-carboxylic acid hydrochloride (Enantiomer 1)]"
25.2 nM,7.0 nM,"CN1CCN(c2ccc(-c3ccc(Cl)cc3N3CCCC(n4ncc(C(=O)O)c4C(F)F)C3)cc2)CC1 (single isomer, unassigned; enantiomer 2) [Example 2, 1-{1-[4-Chloro-4′-(4-methylpiperazin-1-yl)[biphenyl]-2-yl]piperidin-3-yl}-5-(difluoromethyl)-1H-pyrazole-4-carboxylic acid hydrochloride (Enantiomer 2)]"
33.5 nM,3.0 nM,"CC(C)N1CCN(c2ccc(-c3ccc(Cl)cc3N3CCCC(n4ncc(C(=O)O)c4C(F)F)C3)cc2)CC1 (single isomer, unassigned; enantiomer 2) [Example 6, 1-{1-[4-Chloro-4′-(4-isopropylpiperazin-1-yl)[biphenyl]-2-yl]piperidin-3-yl}-5-(difluoromethyl)-1H-pyrazole-4-carboxylic acid (Enantiomer 2)]"
